A short description of series [1]: Dog pharmacokinetics, crystalline compound in suspension (Example 15 Part A). It counts as in vivo, beagle dogs. Particulars: for bioavailability / AUC(0-t) / Cmax: both sexes, beagle, dog, plasma, 30 mg/kg; for bioavailability: oral, AUC0-t oral vs AUC0-inf of 2-mg/kg IV dose, read-out: F (bioavailability); for AUC(0-t) / Cmax: po, suspension in 0.5% HPMC. Here is the method:
Crystalline compound of Formula I is prepared as a suspension in 0.5% hydroxypropyl methylcellulose (IPMC) at 6 mg/mL for administration of 30 mg/kg; no correction factor is used for dose formulation. Three male and five female beagle dogs are administered a single PO gavage dose of 30 mg/kg compound of Formula I formulated as a suspension in 0.5% HPMC. All animals are administered the suspension of the crystalline compound of Formula I in fed and fasted states, following a 7-day washout period between dosing periods/feeding conditions. For both feeding conditions, access to food is removed at least 12 hours prior to dose administration. In Crossover #1, 6 dogs are fed a mix of canned and dry food approximately 45 minutes prior to dose administration (Group 1), and 2 dogs are administered the compound of Formula I in a fasted state and fed 4 hours after dosing (Group 2). In Crossover #2, the 2 dogs that are administered the compound of Formula I in the fasted state in Crossover #1 are fed a mix of canned and dry food approximately 45 minutes prior to dose administration (Group 3), and 5 of the dogs that are administered the compound of Formula I in the fed state in Crossover #1 are administered the compound of Formula I in a fasted state and fed 4 hours after dosing (Group 4) (Table 26). The same 3 males and 3 females are assigned to Groups 1 and 4 (with the exception of one female, which is assigned to Group 1 but is not included in Group 4), and the same 2 females are assigned to Groups 2 and 3.
Blood samples are collected via the jugular vein following PO doses at 0 (pre-dose), 0.5, 1, 2, 4, 8 24 and 48 hours into EDTAblood collection tubes. Samples are centrifuged at 3500 rpm for 10 minutes at 4-8° C. and the plasma fraction is stored frozen at −70° C. prior to bioanalytical analysis. Concentrations of the compound of Formula I in dog plasma are determined by LC-MS/MS following protein precipitation with acetonitrile. Non-compartmental pharmacokinetic parameters of the compound of Formula I are calculated by conventional methods using individual plasma concentration profiles over time and Microsoft Excel.

A short description of series [2]: In vivo dog bioavailability and pharmacokinetic study, reference vs SDD. The conditions noted are these: beagle, plasma, po, 30 mg/kg, dogs, suspension in 0.5% HPMC in water, mean ± SD. As for the experimental part: Dogs are fasted overnight prior to dosing (fasted) or fed canned food 45 min prior to dosing (fed). Samples for pharmacokinetic (PK) analysis are collected at 30 min, 1, 2, 4, 8, 24, and 48 hours post-dose. Blood samples are processed to plasma and stored frozen at −70° C. until analysis of the compound of Formula I concentrations. The concentration of the compound of Formula I in the plasma is determined by reverse phase HPLC with mass spectrometry detection. The compound of Formula I area under the curve is calculated by the trapezoidal method over the time course of the study. ANOVA with Dunett correction for multiple comparisons is used to determine statistical significant of differences from the reference formulation. The values of AUC and Cmax are reported as averages±standard deviation for each group of dogs in Table 24.

Setting [3] is: beagle dogs, single PO 30 mg/kg.
[4] abbreviates: beagle dogs, fasted, single PO 30 mg/kg.
[5] abbreviates: beagle dogs, fed, single PO 30 mg/kg.

Read-outs that look alike come from different tables or passages of the source.

Consider `COc1ccc(F)cc1C(=O)NCc1ccc(-c2nn([C@@H](C)C(F)(F)F)c(N)c2C(N)=O)cc1` [Crystalline compound of Formula I, (S)-5-amino-3-(4-((5-fluoro-2-methoxybenzamido)methyl)phenyl)-1-(1,1,1-trifluoropropan-2-yl)-1H-pyrazole-4-carboxamide], for which the “AUC0-t fold change (fed/fasted ratio)” value in series [1] (setting [3]) worked out at 7.5 ± 3.3. In series [1] (setting [3]), the “Cmax fold change (fed/fasted ratio)” value is on record as 4.8 ± 2.1. In addition, the bioavailability in series [1] (fasted) stood at 5.09%; in series [1] (fed), 29.7%. The values for the area under the curve AUC(0-t) in series [1] (setting [4]) and in series [1] (setting [5]) were 8180 ± 3680 ng·h/mL and 47800 ± 21300 ng·h/mL, respectively. The Cmax is 597 ± 197 ng/mL in series [1] (setting [4]) and 2370 ± 679 ng/mL in series [1] (setting [5]).

`COc1ccc(F)cc1C(=O)NCc1ccc(-c2nn([C@@H](C)C(F)(F)F)c(N)c2C(N)=O)cc1` [Reference, (S)-5-amino-3-(4-((5-fluoro-2-methoxybenzamido)methyl)phenyl)-1-(1,1,1-trifluoropropan-2-yl)-1H-pyrazole-4-carboxamide]: the AUC in series [2] (fasted) stood at 11300 ng·h/mL; in series [2] (fed) it was 47800 ng·h/mL. The Cmax in series [2] (fasted) amounted to 597 ng/mL; in series [2] (fed), 2370 ng/mL.

Values taken from patent US12268666B2, “Spray-dried dispersions, formulations, and polymorphs of (S)-5-amino-3-(4-((5-fluoro-2-methoxybenzamido)methyl)phenyl)-1-(1,1,1-trifluoropropan-2-yl)-1H-pyrazole-4-carboxamide” (Loxo Oncology, Inc., priority 2018, dated 2025).
